# Like-named read-outs stand apart in the source and are kept apart here.
# Assays:
# Assay type in all cases: cell-based
# G2019S LRRK2 = target: T1, G2019S LRRK2 (Homo sapiens, UniProt Q5S007, G2019S); assay: LRRK2 degradation assay, HiBit-tagged G2019S LRRK2 expressed from plasmid in HEK293 cells (Nano-Glo Dual-Luciferase); conditions: 24 hours
# T1 construct: expressed in transfected cells; host or cells: HEK293 (ATCC CRL-1573), transient transfection, mammalian expression vector with ubiquitin promoter
# T1 sequence (Q5S007 whole entry G2019S): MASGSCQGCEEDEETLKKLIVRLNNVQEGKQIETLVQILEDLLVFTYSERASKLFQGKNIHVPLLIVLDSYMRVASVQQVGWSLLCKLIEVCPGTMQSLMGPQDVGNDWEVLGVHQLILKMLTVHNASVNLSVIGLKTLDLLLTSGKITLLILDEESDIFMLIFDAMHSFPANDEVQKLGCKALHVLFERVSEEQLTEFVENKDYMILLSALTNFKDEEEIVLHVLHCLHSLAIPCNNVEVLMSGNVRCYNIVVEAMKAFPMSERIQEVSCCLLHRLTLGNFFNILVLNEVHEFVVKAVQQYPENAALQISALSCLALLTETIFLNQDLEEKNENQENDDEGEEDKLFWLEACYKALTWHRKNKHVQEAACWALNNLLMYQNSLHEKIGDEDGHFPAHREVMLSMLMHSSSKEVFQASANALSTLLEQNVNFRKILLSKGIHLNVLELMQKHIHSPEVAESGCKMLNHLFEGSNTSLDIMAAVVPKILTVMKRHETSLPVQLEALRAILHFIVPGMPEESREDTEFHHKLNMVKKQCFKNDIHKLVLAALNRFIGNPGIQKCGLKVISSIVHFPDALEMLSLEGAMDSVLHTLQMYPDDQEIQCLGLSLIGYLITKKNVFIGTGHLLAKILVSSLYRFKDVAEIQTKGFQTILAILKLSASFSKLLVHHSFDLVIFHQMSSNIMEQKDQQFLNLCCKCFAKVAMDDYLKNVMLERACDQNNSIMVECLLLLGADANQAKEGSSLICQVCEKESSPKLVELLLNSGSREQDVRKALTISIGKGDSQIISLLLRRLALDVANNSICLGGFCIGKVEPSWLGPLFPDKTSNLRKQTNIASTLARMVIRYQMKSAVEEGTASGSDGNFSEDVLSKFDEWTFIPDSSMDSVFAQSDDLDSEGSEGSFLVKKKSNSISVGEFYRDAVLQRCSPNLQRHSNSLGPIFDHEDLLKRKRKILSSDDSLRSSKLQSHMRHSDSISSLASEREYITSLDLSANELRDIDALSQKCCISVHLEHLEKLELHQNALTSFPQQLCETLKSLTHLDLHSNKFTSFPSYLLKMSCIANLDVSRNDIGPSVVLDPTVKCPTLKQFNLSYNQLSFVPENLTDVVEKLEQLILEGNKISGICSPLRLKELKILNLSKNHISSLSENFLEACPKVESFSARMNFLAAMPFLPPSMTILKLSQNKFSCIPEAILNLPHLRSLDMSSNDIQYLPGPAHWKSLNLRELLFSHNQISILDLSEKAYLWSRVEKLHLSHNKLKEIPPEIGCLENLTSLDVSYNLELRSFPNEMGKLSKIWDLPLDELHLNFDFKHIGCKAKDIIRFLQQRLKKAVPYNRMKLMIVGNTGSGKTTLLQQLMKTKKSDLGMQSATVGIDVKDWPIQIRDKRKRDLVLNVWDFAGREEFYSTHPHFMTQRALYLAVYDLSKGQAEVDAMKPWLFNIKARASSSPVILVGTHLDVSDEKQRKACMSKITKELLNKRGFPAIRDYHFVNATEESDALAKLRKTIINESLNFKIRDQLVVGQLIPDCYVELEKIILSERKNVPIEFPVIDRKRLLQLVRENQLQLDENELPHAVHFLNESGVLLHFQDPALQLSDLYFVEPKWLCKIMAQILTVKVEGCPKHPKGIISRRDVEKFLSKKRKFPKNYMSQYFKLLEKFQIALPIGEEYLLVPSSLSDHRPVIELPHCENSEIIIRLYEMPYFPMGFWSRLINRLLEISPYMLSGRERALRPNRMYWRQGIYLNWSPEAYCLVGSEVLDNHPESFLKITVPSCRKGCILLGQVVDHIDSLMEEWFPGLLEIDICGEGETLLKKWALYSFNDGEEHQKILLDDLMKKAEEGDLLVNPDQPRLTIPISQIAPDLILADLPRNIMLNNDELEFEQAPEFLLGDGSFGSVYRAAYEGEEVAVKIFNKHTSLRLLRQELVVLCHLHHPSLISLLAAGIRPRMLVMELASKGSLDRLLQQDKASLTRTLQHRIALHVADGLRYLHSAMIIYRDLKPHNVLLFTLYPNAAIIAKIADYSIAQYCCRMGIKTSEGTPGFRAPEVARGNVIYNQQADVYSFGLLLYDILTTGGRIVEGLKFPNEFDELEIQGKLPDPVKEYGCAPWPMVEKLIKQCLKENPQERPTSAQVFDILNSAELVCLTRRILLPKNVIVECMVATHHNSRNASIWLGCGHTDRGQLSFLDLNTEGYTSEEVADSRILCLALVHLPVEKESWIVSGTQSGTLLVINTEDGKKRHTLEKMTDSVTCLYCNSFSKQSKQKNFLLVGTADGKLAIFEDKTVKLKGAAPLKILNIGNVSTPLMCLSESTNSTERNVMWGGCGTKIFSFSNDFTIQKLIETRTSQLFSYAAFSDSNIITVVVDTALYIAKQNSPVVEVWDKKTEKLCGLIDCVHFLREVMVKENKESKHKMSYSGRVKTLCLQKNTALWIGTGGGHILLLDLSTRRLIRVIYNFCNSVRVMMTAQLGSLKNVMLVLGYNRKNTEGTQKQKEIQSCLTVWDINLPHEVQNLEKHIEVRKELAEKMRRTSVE
# Text: (§1) Exemplary Assay for Testing LRRK2 Degradation Driven by Exemplary Hetero-Bifunctional Compounds Designed to Target LRRK2
# (§2) The assay measures the degradation of wildtype and G2019S LRRK2 tagged with a HiBit tag on the C-terminus of the protein that was expressed from a mammalian expression vector, driven by the ubiquitin promoter in HEK293 cells. Each compound dose-response was repeated on two separate days, on three separate plates each day.
# (§3) Plasmid Preparation. Transfection mixes were assembled as follows and incubated for 30 minutes at room temperature. In a 15 mL tube, 5.25 mL Opti-MEM (no additions) was mixed with 17 μL Firefly Luciferase plasmid at 1 μg/μL and 158 μL WT plasmid DNA at 1 μg/μL (175 μg total DNA) were mixed by flicking. In a new 15 mL tube, 5.25 mL OptiMEM was mixed with 17 μL Firefly Luciferase plasmid at 1 μg/μL and 158 μL G2019S plasmid DNA at 1 μg/μL (175 μg total DNA) were mixed by flicking. X-tremeGene HP was mixed thoroughly using a vortex. Next, 175 μL was added to each tube and flicked to mix. Both tubes were left to incubate for 30 minutes at room temperature.
# (§4) While the transfection mixes were incubating, HEK293 cells (acquired from ATCC; ATCC CRL-1573) were harvested with trypsin. Once cells are detached, the cells were resuspended in 12 mL OptiMEM+5% FBS and transferred to a 50 mL tube. The cells were mixed well and counted. Using OptiMEM+5% FBS, the cells were diluted in two 250 mL conical tubes at 0.71×10^6 cells/mL in 70 mL. One tube was labeled “WT” and the other “G2019S”. The WT and G2019S transfection mixes were added dropwise to the corresponding 250 mL tubes. The tubes were mixed first by pipetting then by swirling. The tubes were incubated at room temperature for at least 5 minutes.
# (§5) Each tube was swirled before dispensing and after every three plates. Seventy microliters of cells were dispensed with WT or G2019S DNA to seven plates each. Three plates of each were tested with compound plate one (preparation described below) and three plates of each were tested with compound plate two (preparation described below). The first plate from each set served as a “prime” plate and was not used to test compounds. Each plate was incubated in the hood for 10 minutes before placing in the 37° C. incubator for 24 hours.
# (§6) Preparation of Compound and Assay Plates. Two compound plates were made using 96 well polypropylene plates. Compounds were made up at 10 mM and were diluted to 1 mM in 30 μL. Each dose response curve included a well of DMSO, as a negative control and for normalization, and a well of 0.5 μM of Compound 4 as a positive control. In addition to seven test compounds, each plate also included a dose response of Compound 4. The compound plates were spun down along at 1200 rpm for 2 minutes.
# (§7) The two compound plates were then mixed and 2 μL was diluted in intermediate plates having 248 μL of Opti-Mem in each well. Next, 10 μL diluted compounds from the intermediate plates were added to each test plate (three WT and three G2019S plates per compound plate for a total of 12 assay plates). The plates were incubated for 24 hours at 37° C.
# (§8) All assay plates and all Nano-Glo Dual-Luciferase Reporter Assay System components (except for the DLR substrate) were equilibrated to room temperature. Next, the luciferase buffer was mixed with the lyophilized amber bottle until fully dissolved, and 75 μL of the luciferase mixture was added to each well of each assay plate. The assay plates were incubated for 10 minutes at room temperature with shaking for at least 5 minutes, and then read on a plate reader.
# (§9) Developing Plates and Analyzing Data. One milliliter of DLR substrate and 1 mL LgBiT Protein were added to the Stop and Glo buffer, and 75 μL of the mixture was added to each well of each plate. Optically clear seals were added to each plate and each plate was incubated for 20 minutes with shaking for at least 10 minutes, and then read on a plate reader. […]
# wildtype LRRK2 = target: T2, wildtype LRRK2 (Homo sapiens, UniProt Q5S007); assay: LRRK2 degradation assay, HiBit-tagged wildtype LRRK2 expressed from plasmid in HEK293 cells (Nano-Glo Dual-Luciferase); conditions: 24 hours; for Dmax: read-out: **WT Dmax (%); for DC50: read-out: *WT DC50
# T2 construct: expressed in transfected cells; host or cells: HEK293 (ATCC CRL-1573), transient transfection, mammalian expression vector with ubiquitin promoter
# T2 sequence (Q5S007 whole entry): as the sequence (Q5S007 whole entry G2019S) above, with S2019G counted along it
# Text: as §1, §2, §3, §4, §5, §6, §7, §8, §9
# [1] = target: T3, LRRK2 (endogenous, HiBit tagged) (Homo sapiens, UniProt Q5S007); assay: Endogenous LRRK2 degradation assay, endogenous gene C-terminally HiBit-tagged in HEK293 cells (Nano-Glo Dual Luciferase); conditions: endogenous HiBit-tagged LRRK2 in HEK293 cells, 24 hours treatment; for DC50: read-out: Endogenous WT DC50; for Dmax: read-out: Endogenous WT Dmax
# T3 construct: endogenous in cells; host or cells: HEK293 cells with HiBit knock-in at the endogenous LRRK2 locus, stably expressing firefly luciferase
# T3 sequence (Q5S007 whole entry): as the sequence (Q5S007 whole entry G2019S) above, with S2019G counted along it
# Summary of the method: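 LRRK2-HiBit quantified via Nano-Glo Dual Luciferase in HEK293 knock-in cells co-expressing firefly luciferase, after 24 h exposure to compound (1 μM final top, 1:3, 11 points). Values normalised to DMSO median per plate and curve-fitted; Alamar Blue viability run alongside.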
# [2] = HiBit-tagged G2019S LRRK2 in HEK293 cells
# [3] = HiBit-tagged wildtype LRRK2 in HEK293 cells
# [4] = HiBit-tagged G2019S LRRK2, HEK293 cells
# [5] = HiBit-tagged wildtype LRRK2, HEK293 cells
DC50 (G2019S LRRK2; [2]),Dmax (G2019S LRRK2; [2]),Dmax (wildtype LRRK2; [3]),DC50 (wildtype LRRK2; [3]),SMILES,also measured
< 10 nM,50 to 70%,50 to 70%,< 10 nM,"CC1(Oc2ccc3[nH]nc(-c4cc(N5CCN(CC(F)(F)C6CCN(CC7CCN(c8ccc9c(c8)C(=O)N(C8CCC(=O)NC8=O)C9=O)CC7)CC6)CC5)ncn4)c3c2)CC1 (stereo not shown) [Compound 53, 5-[4-[[4-[1,1-difluoro-2-[4-[6-[5-(1-methylcyclopropoxy)-1H-indazol-3-yl]pyrimidin-4-yl]piperazin-1-yl]ethyl]-1-piperidyl]methyl]-1-piperidyl]-2-(2,6-dioxo-3-piperidyl)isoindoline-1,3-dione]",–
–,–,50 to 70%,< 10 nM,"CC1(Oc2ccc3[nH]nc(-c4cc(N5CCC(CN6CC[C@H](CN7CCN(c8ccc9c(c8)C(=O)N(C8CCC(=O)NC8=O)C9=O)CC7)C6)CC5)ncn4)c3c2)CC1 (stereo partly drawn) [Compound 114, 2-(2,6-dioxo-3-piperidyl)-5-[4-[[(3S)-1-[[1-[6-[5-(1-methylcyclopropoxy)-1H-indazol-3-yl]pyrimidin-4-yl]-4-piperidyl]methyl]pyrrolidin-3-yl]methyl]piperazin-1-yl]isoindoline-1,3-dione]",–
–,–,50 to 70%,10 to 50 nM,"CC1(Oc2ccc3[nH]nc(-c4cc(N5CCC(CN6CCN(CC7CCN(c8cccc9c8C(=O)N(C8CCC(=O)NC8=O)C9=O)CC7)CC6)CC5)ncn4)c3c2)CC1 (stereo not shown) [Compound 146, 2-(2,6-dioxo-3-piperidyl)-4-[4-[[4-[[1-[6-[5-(1-methylcyclopropoxy)-2H-indazol-3-yl]pyrimidin-4-yl]-4-piperidyl]methyl]piperazin-1-yl]methyl]-1-piperidyl]isoindoline-1,3-dione]",–

# The next lines start with the compound.
SMILES,DC50 (G2019S LRRK2; [2]),Dmax (G2019S LRRK2; [2]),Dmax (wildtype LRRK2; [3]),DC50 (wildtype LRRK2; [3]),also measured
"CC1(Oc2ccc3[nH]nc(-c4cc(N5CCN(C[C@@H]6CCN(CC7CCN(c8ccc9c(c8)C(=O)N(C8CCC(=O)NC8=O)C9=O)CC7)C(=O)C6)CC5)ncn4)c3c2)CC1 (single isomer, unassigned) [Compound 103]",< 10 nM,50 to 70%,50 to 70%,< 10 nM,–
"CC1(Oc2ccc3[nH]nc(-c4cc(N5CCN(C[C@H]6CCN(CC7CCN(c8ccc9c(c8)C(=O)N(C8CCC(=O)NC8=O)C9=O)CC7)C(=O)C6)CC5)ncn4)c3c2)CC1 (single isomer, unassigned) [Compound 104]",< 10 nM,< 50%,50 to 70%,< 10 nM,–
"CC1(Oc2ccc3[nH]nc(-c4cc(N5CCO[C@@H](CCN6CCN(CC7CCN(c8ccc9c(c8)C(=O)N(C8CCC(=O)NC8=O)C9=O)CC7)CC6)C5)ncn4)c3c2)CC1 (single isomer, unassigned) [Compound 154]",–,–,–,–,DC50 (G2019S LRRK2; [4]): < 10 nM; Dmax (G2019S LRRK2; [4]): 50 to 70%; Dmax (wildtype LRRK2; [5]): 50 to 70%; DC50 (wildtype LRRK2; [5]): < 10 nM
"CC1(Oc2ccc3[nH]nc(-c4cc(N5CCN(CCN6CCN(CC7CCN(c8ccc9c(c8)C(=O)N(C8CCC(=O)NC8=O)C9=O)CC7)CC6)CC5)ncn4)c3c2)CC1 (stereo not shown) [Compound 54, 2-(2,6-dioxopiperidin-3-yl)-5-[4-({4-[2-(4-{6-[5-(1-methylcyclopropoxy)-1H-indazol-3-yl]pyrimidin-4-yl}piperazin-1-yl)ethyl]piperazin-1-yl}methyl)piperidin-1-yl]-2,3-dihydro-1H-isoindole-1,3-dione]",< 10 nM,≥ 70%,≥ 70%,< 10 nM,–
"C[C@H]1CN(c2cc(-c3n[nH]c4ccc(OC5(C)CC5)cc34)ncn2)CCN1CCN1CCN(CC2CCN(c3ccc4c(c3)C(=O)N(C3CCC(=O)NC3=O)C4=O)CC2)CC1 (stereo partly drawn) [Compound 55, 2-(2,6-dioxopiperidin-3-yl)-5-{4-[(4-{2-[(2S)-2-methyl-4-{6-[5-(1-methylcyclopropoxy)-1H-indazol-3-yl]pyrimidin-4-yl}piperazin-1-yl]ethyl}piperazin-1-yl)methyl]piperidin-1-yl}-2,3-dihydro-1H-isoindole-1,3-dione]",< 10 nM,≥ 70%,≥ 70%,< 10 nM,–
"C[C@H]1CN(c2cc(-c3n[nH]c4ccc(OC5(C)CC5)cc34)ncn2)CCN1CCN1CCN(C(=O)C2CCN(c3ccc4c(c3)C(=O)N(C3CCC(=O)NC3=O)C4=O)CC2)CC1 (stereo partly drawn) [Compound 56, 2-(2,6-dioxo-3-piperidyl)-5-[4-[4-[2-[(2S)-2-methyl-4-[6-[5-(1-methylcyclopropoxy)-2H-indazol-3-yl]pyrimidin-4-yl]piperazin-1-yl]ethyl]piperazine-1-carbonyl]-1-piperidyl]isoindoline-1,3-dione]",< 10 nM,≥ 70%,≥ 70%,< 10 nM,–
"C[C@H]1CN(c2cc(-c3n[nH]c4ccc(OC5(C)CC5)cc34)ncn2)CCN1C[C@H]1CCN(CC2CCN(c3ccc4c(c3)C(=O)N(C3CCC(=O)NC3=O)C4=O)CC2)C1 (stereo partly drawn) [Compound 111, 2-(2,6-dioxo-3-piperidyl)-5-[4-[[(3S)-3-[[(2S)-2-methyl-4-[6-[5-(1-methylcyclopropoxy)-1H-indazol-3-yl]pyrimidin-4-yl]piperazin-1-yl]methyl]pyrrolidin-1-yl]methyl]-1-piperidyl]isoindoline-1,3-dione]",–,–,≥ 70%,< 10 nM,–
"CC1(Oc2ccc3[nH]nc(-c4cc(N5CCN(C[C@H]6CC[C@H](OC7CCN(c8ccc9c(c8F)CN(C8CCC(=O)NC8=O)C9=O)CC7)CC6)C(C)(C)C5)ncn4)c3c2)CC1 (stereo partly shown) [Compound 381, 3-[4-fluoro-1-oxo-5-(4-{[(1r,4r)-4-[(2,2-dimethyl-4-{6-[5-(1-methylcyclopropoxy)-1H-indazol-3-yl]pyrimidin-4-yl}piperazin-1-yl)methyl]cyclohexyl]oxy}piperidin-1-yl)-2,3-dihydro-1H-isoindol-2-yl]piperidine-2,6-dione]",–,–,–,–,DC50 [1]: 10 to 50 nM; Dmax [1]: < 50%
"COc1c(N2CCC(O[C@H]3CC[C@H](CN4CCN(c5cc(-c6n[nH]c7ccc(OC8(C)CC8)cc67)ncn5)CC4(C)C)CC3)CC2)ccc2c1CN(C1CCC(=O)NC1=O)C2=O (stereo partly shown) [Compound 382, 3-[4-methoxy-1-oxo-5-(4-{[(1r,4r)-4-[(2,2-dimethyl-4-{6-[5-(1-methylcyclopropoxy)-1H-indazol-3-yl]pyrimidin-4-yl}piperazin-1-yl)methyl]cyclohexyl]oxy}piperidin-1-yl)-2,3-dihydro-1H-isoindol-2-yl]piperidine-2,6-dione]",–,–,–,–,DC50 [1]: 10 to 50 nM; Dmax [1]: 50 to 70%
"CC1(Oc2ccc3[nH]nc(-c4cc(N5CCN(C[C@H]6CC[C@H](OC7CCN(c8ccc9c(c8F)CN(C8CCC(=O)NC8=O)C9=O)CC7)CC6)CC5(C)C)ncn4)c3c2)CC1 (stereo partly shown) [Compound 383, 3-(5-(4-(((1r,4r)-4-((3,3-dimethyl-4-(6-(5-(1-methylcyclopropoxy)-1H-indazol-3-yl)pyrimidin-4-yl)piperazin-1-yl)methyl)cyclohexyl)oxy)piperidin-1-yl)-4-fluoro-1-oxoisoindolin-2-yl)piperidine-2,6-dione]",–,–,–,–,DC50 [1]: 50 to 100 nM; Dmax [1]: < 50%

# — patent publication US12559506B2, “Indazole based compounds and associated methods of use” (Arvinas Operations, Inc., priority 2021, dated 2026)
